Experiment: xn = mol fraction of the nth substance listed
Conditions: 101 kPa, Liquid, Vibrating tube method

CC(C)(C)O [2-methylpropan-2-ol] + O
Conditions | mass density [kg/m3]
298.15 K, x1 = 0.6029 | 813.22
298.15 K, x1 = 0.6909 | 803.57
298.15 K, x1 = 0.726 | 800.1
298.15 K, x1 = 0.7999 | 794.07
298.15 K, x1 = 0.8711 | 788.3
298.15 K, x1 = 0.9183 | 785.07
298.15 K, x1 = 0.9574 | 782.74
298.15 K, x1 = 0.9652 | 782.29
298.15 K, x1 = 0.9795 | 781.56
298.15 K, x1 = 0.9873 | 781.18
298.15 K, x1 = 0.9935 | 780.83
298.15 K, x1 = 0.9963 | 780.69
299.15 K, x1 = 0.9821 | 780.36
299.15 K, x1 = 0.9944 | 779.76
299.15 K, x1 = 0.996 | 779.69
299.15 K, x1 = 1 | 779.48
303.15 K, x1 = 0.9821 | 776.31
303.15 K, x1 = 0.9944 | 775.66
303.15 K, x1 = 0.996 | 775.58
303.15 K, x1 = 1 | 775.39
308.15 K, x1 = 0.00089 | 993.36
308.15 K, x1 = 0.00146 | 992.96
308.15 K, x1 = 0.00269 | 992.08
308.15 K, x1 = 0.00403 | 991.15
308.15 K, x1 = 0.00513 | 990.39
308.15 K, x1 = 0.00761 | 988.7
308.15 K, x1 = 0.01405 | 984.86
308.15 K, x1 = 0.0248 | 978.65
308.15 K, x1 = 0.03494 | 973.48
308.15 K, x1 = 0.04241 | 969.43
308.15 K, x1 = 0.05218 | 963.7
308.15 K, x1 = 0.05887 | 959.67
308.15 K, x1 = 0.06973 | 953.09
308.15 K, x1 = 0.1125 | 928.56
308.15 K, x1 = 0.1566 | 906.33
308.15 K, x1 = 0.208 | 886.22
308.15 K, x1 = 0.2408 | 874.67
308.15 K, x1 = 0.3023 | 856.97
308.15 K, x1 = 0.3451 | 846.68
308.15 K, x1 = 0.4045 | 834.17
308.15 K, x1 = 0.4225 | 830.99
308.15 K, x1 = 0.4653 | 823.8
308.15 K, x1 = 0.5344 | 812.83
308.15 K, x1 = 0.6029 | 803.86
308.15 K, x1 = 0.6909 | 794.03
308.15 K, x1 = 0.726 | 790.54
308.15 K, x1 = 0.7999 | 784.37
308.15 K, x1 = 0.8711 | 778.45
308.15 K, x1 = 0.9183 | 775.09
308.15 K, x1 = 0.9574 | 772.63
308.15 K, x1 = 0.9652 | 772.13
308.15 K, x1 = 0.9795 | 771.34
308.15 K, x1 = 0.9821 | 771.14
308.15 K, x1 = 0.9944 | 770.47
308.15 K, x1 = 0.996 | 770.38
308.15 K, x1 = 1 | 770.14
313.15 K, x1 = 0.9821 | 765.88
313.15 K, x1 = 0.9944 | 765.18
313.15 K, x1 = 0.996 | 765.09
313.15 K, x1 = 1 | 764.84
318.15 K, x1 = 0.9821 | 760.53
318.15 K, x1 = 0.9944 | 759.8
318.15 K, x1 = 0.996 | 759.71
318.15 K, x1 = 1 | 759.46
323.15 K, x1 = 0.00089 | 987.36
323.15 K, x1 = 0.00146 | 986.95
323.15 K, x1 = 0.00269 | 986.1
323.15 K, x1 = 0.00403 | 985.16
323.15 K, x1 = 0.00513 | 984.39
323.15 K, x1 = 0.00761 | 982.75
323.15 K, x1 = 0.01405 | 978.38
323.15 K, x1 = 0.0248 | 971.52
323.15 K, x1 = 0.03494 | 965.43
323.15 K, x1 = 0.04241 | 960.77
323.15 K, x1 = 0.05218 | 954.06
323.15 K, x1 = 0.05887 | 949.57
323.15 K, x1 = 0.06973 | 942.66
323.15 K, x1 = 0.1125 | 916.92
323.15 K, x1 = 0.1566 | 893.97
323.15 K, x1 = 0.208 | 873.34
323.15 K, x1 = 0.2408 | 861.46
323.15 K, x1 = 0.3023 | 843.45
323.15 K, x1 = 0.3451 | 832.95
323.15 K, x1 = 0.4045 | 820.18
323.15 K, x1 = 0.4225 | 816.91
323.15 K, x1 = 0.4653 | 809.6
323.15 K, x1 = 0.5344 | 798.37
323.15 K, x1 = 0.6029 | 789.18
323.15 K, x1 = 0.6909 | 779.13
323.15 K, x1 = 0.726 | 775.51
323.15 K, x1 = 0.7999 | 769.18
323.15 K, x1 = 0.8711 | 763
323.15 K, x1 = 0.9183 | 759.52
323.15 K, x1 = 0.9574 | 756.76
323.15 K, x1 = 0.9652 | 756.21
323.15 K, x1 = 0.9795 | 755.31
323.15 K, x1 = 0.9821 | 755.09
323.15 K, x1 = 0.9944 | 754.31
323.15 K, x1 = 0.996 | 754.22
323.15 K, x1 = 1 | 753.94
333.15 K, x1 = 0.00089 | 982.51
333.15 K, x1 = 0.00146 | 982.1
333.15 K, x1 = 0.00269 | 981.23
333.15 K, x1 = 0.00403 | 980.3
333.15 K, x1 = 0.00513 | 979.52
333.15 K, x1 = 0.00761 | 977.87
333.15 K, x1 = 0.01405 | 973.36
333.15 K, x1 = 0.0248 | 965.88
333.15 K, x1 = 0.03494 | 959.46
333.15 K, x1 = 0.04241 | 954.72
333.15 K, x1 = 0.05218 | 947.17
333.15 K, x1 = 0.05887 | 942.74
333.15 K, x1 = 0.06973 | 935.49
333.15 K, x1 = 0.1125 | 908.96
333.15 K, x1 = 0.1566 | 885.44
333.15 K, x1 = 0.208 | 864.42
333.15 K, x1 = 0.2408 | 852.37
333.15 K, x1 = 0.3023 | 834.38
333.15 K, x1 = 0.3451 | 823.51
333.15 K, x1 = 0.4045 | 810.41
333.15 K, x1 = 0.4225 | 807.23
333.15 K, x1 = 0.4653 | 799.78
333.15 K, x1 = 0.5344 | 788.31
333.15 K, x1 = 0.6029 | 778.96
333.15 K, x1 = 0.6909 | 768.71
333.15 K, x1 = 0.726 | 765.01
333.15 K, x1 = 0.7999 | 758.52
333.15 K, x1 = 0.8711 | 752.17
333.15 K, x1 = 0.9183 | 748.6
333.15 K, x1 = 0.9574 | 745.7
333.15 K, x1 = 0.9652 | 745.12
333.15 K, x1 = 0.9795 | 744.15
333.15 K, x1 = 0.9821 | 743.92
333.15 K, x1 = 0.9944 | 743.11
333.15 K, x1 = 0.996 | 743.02
333.15 K, x1 = 1 | 742.7
348.15 K, x1 = 0.00089 | 974.22
348.15 K, x1 = 0.00146 | 973.75
348.15 K, x1 = 0.00269 | 973.04
348.15 K, x1 = 0.00403 | 972.25
348.15 K, x1 = 0.00513 | 971.5
348.15 K, x1 = 0.00761 | 969.81
348.15 K, x1 = 0.01405 | 965
348.15 K, x1 = 0.0248 | 957.02
348.15 K, x1 = 0.03494 | 949.37
348.15 K, x1 = 0.04241 | 944.24
348.15 K, x1 = 0.05218 | 936.2
348.15 K, x1 = 0.05887 | 931.84
348.15 K, x1 = 0.06973 | 924.4
348.15 K, x1 = 0.1125 | 896.84
348.15 K, x1 = 0.1566 | 872.83
348.15 K, x1 = 0.208 | 850.42
348.15 K, x1 = 0.2408 | 838.25
348.15 K, x1 = 0.3023 | 820.05
348.15 K, x1 = 0.3451 | 808.66
348.15 K, x1 = 0.4045 | 795.17
348.15 K, x1 = 0.4225 | 792.36
348.15 K, x1 = 0.4653 | 784.18
348.15 K, x1 = 0.5344 | 772.8
348.15 K, x1 = 0.6029 | 763.18
348.15 K, x1 = 0.6909 | 752.22
348.15 K, x1 = 0.726 | 748.55
348.15 K, x1 = 0.7999 | 741.72
348.15 K, x1 = 0.8711 | 734.96
348.15 K, x1 = 0.9183 | 731.4
348.15 K, x1 = 0.9574 | 728.29
348.15 K, x1 = 0.9652 | 727.67
348.15 K, x1 = 0.9795 | 726.63
348.15 K, x1 = 0.9821 | 726.41
348.15 K, x1 = 0.9944 | 725.51
348.15 K, x1 = 0.996 | 725.4
348.15 K, x1 = 1 | 725.05

Source: the NIST ThermoML archive (doi:10.1016/j.jct.2010.10.018)
